Counter-ions that a name gives are not always drawn.
Row | SMILES | melting point
1 | COc1ccc2c(C)c(C)sc2c1CN[C@H]1CCCN[C@H]1c1ccccc1.Cl.Cl.O (hydrate or solvate) | 240 to 244 °C
2 | COc1ccc(-n2c(C)ccc2C)cc1CN[C@H]1CCCN[C@H]1c1ccccc1 (as salt: hydrochloride) [Example 19, (2S,3S)-[5-(2,5-Dimethylpyrrol-1-yl)-2-methoxybenzyl]-(2-phenylpiperidin-3-yl) amine] | 217 °C (dec.)

Source: patent publication US6369074B1, “Aminomethylene substituted non-aromatic heterocycles and use as substance P antagonists” (Pfizer Inc., priority 1992, dated 2002)
